Measurements published in patent US7348316B2, “Use of an anti-endotoxin drug in the prevention and treatment of disease” (Eisai R&D Management Co., Ltd., priority 2003, dated 2008).

Test system: endotoxin
Assay: administration of E5564 to humans / endotoxin challenge studies
Type: in vivo
From the text: We have discovered that administration of E5564 to humans in a single bolus or by intermittent infusion is effective at preventing the clinical effects of endotoxemia. […] Thus, we have discovered drug administration regimens involving single bolus or intermittent infusion, to prevent or treat endotoxemia and related conditions and disorders (e.g., sepsis) in humans.

`CCCCCC/C=C\CCCCCCCCC[C@@H](O)N[C@H]1[C@H](OCC2O[C@H](OP(=O)(O)O)[C@H](NC(=O)CC(=O)CCCCCCCCCCC)[C@@H](OCCCCCCCCCC)[C@@H]2O)O[C@H](COC)[C@@H](OP(=O)(O)O)[C@@H]1OCC[C@@H](CCCCCCC)OC` (stereo partly drawn) [Compound E5564, α-D-Glucopyranose, 3-O-decyl-2-deoxy-6-O-[2-deoxy-3-O-[(3R)-3-methoxydecyl)-6-O-methyl-2-[[(11Z)-1-oxo-11-octadecenyl)amino]-4-O-phosphono-β-D-glucopyranosyl]-2-[(1,3-dioxotetradecyl)amino]-,1-(dihydrogen phosphate)] was tested, and the “activity of the drug after cessation of administration” value (doses higher than the minimum dose found to be effective in endotoxin challenge studies) was “prolonged activity”, the “preventing the clinical effects of endotoxemia” value (humans, single bolus or intermittent infusion) was “effective” and the “activity of the drug upon cessation of administration” value (previous studies) was “decreases rapidly”. The “clearance from circulation upon cessation of administration” value (previous studies) was “not cleared from circulation”.
